{
  "source": "patent US7087608B2",
  "about": "“Use of PDGF receptor tyrosine kinase inhibitors for the treatment of diabetic nephropathy” (priority 2000, dated 2006)",
  "test_system": "male Wistar rats with anti-Thy-1 nephritis",
  "assay": "Mesangial proliferative glomerulonephritis (anti-Thy-1 nephritis) induced with OX-7 antibody",
  "assay_type": "in vivo, rat",
  "from_the_text": "Mesangial proliferative Glomerulonephritis induced in Male Wistar Rats with monoclonal OX-7, anti-rat Thy-1.1 Antibody\nMonoclonal OX-7, anti-rat Thy-1.1 antibody is used for the induction of mesangial proliferative glomerulonephritis (D. W. Mason and A. F. Williams, Biochem. J. 187(1), 1980, 1–20), macrophages are detected using ED1, anti-rat CD68 (C. D. Dijkstra et al., Immunology 54(3), 1985, 589–99) myofibroblasts are identified by labelling with 1A4, anti-human a smooth muscle actin (Sigma Immunochemicals, St. Louis, Mo.) and M744, anti-BrdU (Dako, Glostrup, Denmark) is used to identify proliferating cells. A polyclonal goat anti-bovine/anti-human type IV collagen antibody (Southern Biotechnology, Birmingham, Ala.) is used to examine extracellular matrix.\nAnti-Thy-1 nephritis is induced in two groups of 8 male Wistar rats (150–170 g) by i.v. injection of 5 mg/kg OX-7 IgG (D. J. Nikolic-Paterson et al., J. Am. Soc. Nephrol. 7(7), 1996, 1006–14). […] A group of 8 normal rats are also injected with BrdU 3 hours before sacrifice.\nTwenty-four hour urine collections and blood samples are taken on days-3 (prior to test) and day 6. Urinary protein concentration is measured by the benzethonium chloride method (Iwata, J. et al., Clin. Chem. 25(7), 1979, 1317–9). Serum and urine creatinine levels are measured using the Jaffé rate reaction (Larsen, K., Clin. Chim. Acta 41, 1972, 209–17).\nTissues are fixed in 4% neutral buffered-formalin and embedded in paraffin. Kidney sections (4 μm) are stained with periodic-acid Schiff's reagent (PAS). Quantitation of nuclei is performed by examining 50 hilar glomeruli per animal.\nImmunostaining is performed as described by Rumble et al., J. Clin. Invest. 99, 1997, 1016–1027. Double immunohistochemical staining is performed in formalin fixed tissue sections using a microwave-based technique to prevent antibody cross-reactivity (G. H. Tesch, et al, Am. J. Pathol. 151(1), 1997, 141–50).\nSections stained with either BrdU or ED1 antibody are scored for ED1+ or BrdU+. Counting is undertaken using a graticule to measure glomerular tuft area and confined to the glomerular tuft thereby omitting cells within the capillary lumen. Fifty glomeruli are scored for each animal and labelled cells expressed as the mean±SD per mm^2. In addition, the number of cells in double-labelled sections are also scored as ED1+BrdU+, ED1+BrdU− and ED1−BrdU+.\nThe magnitude of immunostaining for type IV collagen is quantified using computer assisted image analysis as previously described (H. A. Lehr et al., J. Histochem. Cytochem. 45(11), 1997, 1559–65).",
  "key": {"[1]": {"details": "50 mg/kg daily i.p., day 6, 50 hilar glomeruli per animal, p<0.05"}},
  "data": [
    {"smiles": "Cc1ccc(NC(=O)c2ccc(CN3CCN(C)CC3)cc2)cc1Nc1nccc(-c2cccnc2)n1", "note": "[CGP 57148B, N-{5-[4-(4-methyl-piperazino-methyl)-benzoylamido]-2-methylphenyl}-4-(3-pyridyl)-2-pyrimidine-amine]", "values": [
      {"measurement": "Proteinuria", "setting": "50 mg/kg daily i.p. from day 1 after OX-7 IgG, day 6, 24-hour urine", "value": "16.4±7.0", "unit": "mg/24 hours"},
      {"measurement": "Mesangial cell (BrdU+ED1−) proliferation per glomerular cross section (FIG. 2)", "setting": "50 mg/kg daily i.p., day 6, 50 hilar glomeruli per animal, p<0.001", "value": "significantly reduced"},
      {"measurement": "Glomerular hypercellularity, nuclei per glomerular cross section (FIG. 1)", "setting": "[1]", "value": "significantly reduced"},
      {"measurement": "Number of activated mesangial cells (a-smooth muscle actin positive) (FIG. 3)", "setting": "[1]", "value": "significantly reduced"},
      {"measurement": "Glomerular matrix accumulation of immunostainable type IV collagen (FIG. 4)", "setting": "50 mg/kg daily i.p., day 6, image analysis, p<0.05 versus untreated rats", "value": "significantly reduced"},
      {"measurement": "Mesangial hypercellularity and increased mesangial matrix in PAS-stained kidney sections", "setting": "50 mg/kg daily i.p., killed on day 6", "value": "not observed"}
    ]}
  ]
}
